Experimental data published in PubChem BioAssay AID1963831 (Molecular Pharmacology Branch, DTP, NCI, 2024).

System: 889142-216-R-J1-PDC complex spheroid viability
Experiment: Anticancer human tumor 889142-216-R-J1-PDC patient-derived bladder carcinoma cell line growth inhibition [POLQ]
Conditions: for IC50: curve of first compound; for viability, T/C: stronger effect = lower value
Method: Multicellular complex tumor spheroid response to Polymerase (POL) inhibitors (novobiocin, ART-558, RP6685) in combination with a variety of drugs and investigational agents in selected tumor cell lines
The POL inhibitors (novobiocin, ART-558, and RP6685) were evaluated both individually and in combination with standard of care and investigational anticancer small molecules within a complex spheroid model of solid tumors. . Complex spheroids include a stromal component modeled by human endothelial cells (HUVEC) and fibroblasts modeled by human mesenchymal stem cells (MSCs). The concentration ranges selected for each drug and investigational agent were based upon clinically achievable concentrations if the clinical Cmax of the agent was known.
Compounds. The drugs and investigational agents: novobiocin (NSC847541), ART-558 (NSC835418), RP-6685 (NSC848927), peposertib (NSC802822), ceralasertib (NSC780249), elimusertib (NSC800525), camonsertib (NSC841442), AZD-1390 (NSC803789), olaparib (NSC753686), talazoparib (NSC767125), rucaparib (NSC756644), sotorasib (NSC818433), MRTX-1133 (NSC836407), SN-38 (NSC673596), topotecan (NSC609699), epotoside (NSC141540), doxorubicin (NSC123127), gemcitabine (NSC613327), 5-fluorouracil (NSC19893), paclitaxel (NSC125973), vemurafenib (NSC761431), MSA-2 (NSC828583), SN-011 (NSC837082), adavosertib (NSC754352), prexasertib (NSC758257), carboplatin (NSC241240) and oxaliplatin (NSC266046), were obtained from the National Cancer Institute (NCI) Developmental Therapeutics Program Chemical Repository (21). The FDA-approved anticancer drug set is available from the Developmental Therapeutics Program at https://dtp.cancer.gov/organization/dscb/obtaining/. […] The stock solutions were prepared in dimethyl sulfoxide (DMSO, Sigma-Aldrich, St. Louis, MO, cat. D2650), except for the platinum compounds which were prepared in saline (Quality Biological, Gaithersburg, MD, cat. 114-055-101), at 800-fold the tested concentration and stored at -70 degrees C prior to their use. All drugs and investigational agents were tested over a range starting from a high concentration at or near the clinical Cmax and decreasing in half-log increments. If the clinical Cmax for an agent had not been determined, the highest concentration tested was 10 microM, except for SN-38, which was tested at a high concentration of 1 microM.
Cell Culture. All cells were maintained in an incubator at 37 degrees C and 5% CO2 with 95% humidity. The PDC lines were cultured according to standard operating procedures established by the NCI PDMR (https://pdmr.cancer.gov). Table 3 of the manuscript, lists the cell lines along with the number of the three cell types plated to form the mct-spheroids and media for tumor cell growth. After thawing, all PDC lines, except 997537-175-T-J1-PDC and 415267-285-R-J2-PDC, were cultured in Matrigel-coated flasks prepared with a working solution of 1X Ham's F-12 nutrient mix, without supplementation (Thermo Fisher Scientific, cat. 11765054), 100 U/mL penicillin-streptomycin (Thermo Fisher Scientific, cat. 15140122), and 2.5% Matrigel (Corning Inc., Corning, NY, cat. 354248) for the first three passages. The two PDC lines 997537-175-T-J1-PDC and 415267-285-R-J2-PDC were cultured on uncoated flasks. The 857933-349-R-J2-PDC line was cultured in 6C/Colon 1B media containing advanced DMEM/F-12 (Thermo Fisher Scientific, cat. 12634028), 10 mM HEPES (Thermo Fisher Scientific, cat. 15630080), 1X GlutaMAX supplement (Thermo Fisher Scientific, cat. 35050061), 0.1 mg/mL primocin (InvivoGen, San Diego, CA, cat. ant-pm-2), 10% defined fetal bovine serum, heat inactivated (HyClone Laboratories Inc., Logan, UT, cat. SH30070.03HI), 50% L-WRN conditioned media (ATCC, cat. CRL-3276), 1.25 mM N-Acetyl-L-cysteine (Sigma-Aldrich, cat. A9165), 10 mM nicotinamide (Sigma-Aldrich, cat. N0636), 1X B-27 supplement (Thermo Fisher Scientific, cat. 17504044), 1X N-2 supplement (Thermo Fisher Scientific, cat. […]

[1] = second compound 0.0316 µM, first compound 0.0316 µM
[2] = second compound 0.0316 µM, first compound 0.1 µM
[3] = second compound 0.0316 µM, first compound 0.316 µM
[4] = second compound 0.0316 µM, first compound 1 µM
[5] = second compound 0.0316 µM, first compound 3.16 µM
[6] = second compound 0.0316 µM, first compound 10 µM
[7] = second compound 0.1 µM, first compound 0.0316 µM
[8] = second compound 0.1 µM, first compound 0.1 µM
[9] = second compound 0.1 µM, first compound 0.316 µM
[10] = second compound 0.1 µM, first compound 1 µM
[11] = second compound 0.1 µM, first compound 3.16 µM
[12] = second compound 0.1 µM, first compound 10 µM
[13] = second compound 0.316 µM, first compound 0.0316 µM
[14] = second compound 0.316 µM, first compound 0.1 µM
[15] = second compound 0.316 µM, first compound 0.316 µM
[16] = second compound 0.316 µM, first compound 1 µM
[17] = second compound 0.316 µM, first compound 3.16 µM
[18] = second compound 0.316 µM, first compound 10 µM
[19] = second compound 1 µM, first compound 0.0316 µM
[20] = second compound 1 µM, first compound 0.1 µM
[21] = second compound 1 µM, first compound 0.316 µM
[22] = second compound 1 µM, first compound 1 µM
[23] = second compound 1 µM, first compound 3.16 µM
[24] = second compound 1 µM, first compound 10 µM
[25] = second compound 3.16 µM, first compound 0.0316 µM
[26] = second compound 3.16 µM, first compound 0.1 µM
[27] = second compound 3.16 µM, first compound 0.316 µM
[28] = second compound 3.16 µM, first compound 1 µM
[29] = second compound 3.16 µM, first compound 3.16 µM
[30] = second compound 3.16 µM, first compound 10 µM
[31] = second compound 10 µM, first compound 0.0316 µM
[32] = second compound 10 µM, first compound 0.1 µM
[33] = second compound 10 µM, first compound 0.316 µM
[34] = second compound 10 µM, first compound 1 µM
[35] = second compound 10 µM, first compound 3.16 µM
[36] = second compound 10 µM, first compound 10 µM
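Note: spheroids exposed to compounds for seven days.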
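Throughout, for viability, T/C: 100% = DMSO vehicle control viability.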

SMILES: C=CC(=O)N1CCN(c2nc(=O)n(-c3c(C)ccnc3C(C)C)c3nc(-c4c(O)cccc4F)c(F)cc23)C(C)C1 (centres undefined) + Nc1ccc(C#CCN(C(=O)Cc2ncc(C(F)(F)F)cc2C(F)(F)F)c2ccc(F)cc2)nn1
- IC50 (second compound 0.0316 µM): > 10000 nM
- IC50 (second compound 0.1 µM): > 10000 nM
- IC50 (second compound 0.316 µM): > 10000 nM
- IC50 (second compound 1 µM): > 10000 nM
- IC50 (second compound 3.16 µM): > 10000 nM
- IC50 (second compound 10 µM): > 10000 nM
- viability, T/C [1]: 95.4%
- viability, T/C [2]: 111%
- viability, T/C [3]: 87.8%
- viability, T/C [4]: 121%
- viability, T/C [5]: 133%
- viability, T/C [6]: 93.6%
- viability, T/C [7]: 103%
- viability, T/C [8]: 89.2%
- viability, T/C [9]: 109%
- viability, T/C [10]: 129%
- viability, T/C [11]: 111%
- viability, T/C [12]: 102%
- viability, T/C [13]: 135%
- viability, T/C [14]: 127%
- viability, T/C [15]: 96.3%
- viability, T/C [16]: 96.5%
- viability, T/C [17]: 145%
- viability, T/C [18]: 111%
- viability, T/C [19]: 113%
- viability, T/C [20]: 86%
- viability, T/C [21]: 120%
- viability, T/C [22]: 121%
- viability, T/C [23]: 116%
- viability, T/C [24]: 100%
- viability, T/C [25]: 126%
- viability, T/C [26]: 88.3%
- viability, T/C [27]: 119%
- viability, T/C [28]: 88.8%
- viability, T/C [29]: 119%
- viability, T/C [30]: 104%
- viability, T/C [31]: 99.5%
- viability, T/C [32]: 114%
- viability, T/C [33]: 121%
- viability, T/C [34]: 95.1%
- viability, T/C [35]: 126%
- viability, T/C [36]: 131%

SMILES: CC1COCCN1c1cc(C2(O)CC3CCC(C2)O3)c2cnn(-c3ccn[nH]3)c2n1 (centres undefined) + Nc1ccc(C#CCN(C(=O)Cc2ncc(C(F)(F)F)cc2C(F)(F)F)c2ccc(F)cc2)nn1
- IC50 (second compound 0.0316 µM): 101 nM
- IC50 (second compound 0.1 µM): 251 nM
- IC50 (second compound 0.316 µM): 209 nM
- IC50 (second compound 1 µM): 99.7 nM
- IC50 (second compound 3.16 µM): 121 nM
- IC50 (second compound 10 µM): 108 nM
- viability, T/C [1]: 63.7%
- viability, T/C [2]: 47.1%
- viability, T/C [3]: 39.1%
- viability, T/C [4]: 35.1%
- viability, T/C [5]: 30.5%
- viability, T/C [6]: 20.3%
- viability, T/C [7]: 67.2%
- viability, T/C [8]: 56.4%
- viability, T/C [9]: 49.4%
- viability, T/C [10]: 39.4%
- viability, T/C [11]: 31.6%
- viability, T/C [12]: 26.1%
- viability, T/C [13]: 71.9%
- viability, T/C [14]: 62%
- viability, T/C [15]: 40.9%
- viability, T/C [16]: 35%
- viability, T/C [17]: 27%
- viability, T/C [18]: 20%
- viability, T/C [19]: 64.5%
- viability, T/C [20]: 47.3%
- viability, T/C [21]: 37.4%
- viability, T/C [22]: 35.4%
- viability, T/C [23]: 29.6%
- viability, T/C [24]: 19.4%
- viability, T/C [25]: 57.8%
- viability, T/C [26]: 49.3%
- viability, T/C [27]: 44.8%
- viability, T/C [28]: 36%
- viability, T/C [29]: 31.2%
- viability, T/C [30]: 16.6%
- viability, T/C [31]: 67%
- viability, T/C [32]: 44.3%
- viability, T/C [33]: 42.1%
- viability, T/C [34]: 31.2%
- viability, T/C [35]: 26.8%
- viability, T/C [36]: 16.2%
